Measured values taken from ChEMBL document CHEMBL1909046, “DrugMatrix in vitro pharmacology data”.

Columns and labels:
[1] = biological target: 5-hydroxytryptamine receptor 6 (Homo sapiens, UniProt P50406); type: cell membranes, HeLa, Membrane; conditions: hela; further: in other assays of this panel Not Active means under 50% inhibition at 10 µM
[2] = biological target: Kappa-type opioid receptor (Homo sapiens, UniProt P41145); assay: DRUGMATRIX: Opiate kappa (OP2, KOP) radioligand binding (ligand: [3H] Diprenorphine); type: cell membranes, HEK293, Membrane; conditions: hek293; Not Active = under 50% inhibition at 10 µM
[3] = biological target: T1, Cysteinyl leukotriene receptor 1 (Homo sapiens, UniProt Q9Y271); type: cell membranes, CHO-K1, Membrane; conditions: cho-k1; further: in other assays of this panel Not Active means under 50% inhibition at 10 µM
T1 sequence (Q9Y271 whole entry): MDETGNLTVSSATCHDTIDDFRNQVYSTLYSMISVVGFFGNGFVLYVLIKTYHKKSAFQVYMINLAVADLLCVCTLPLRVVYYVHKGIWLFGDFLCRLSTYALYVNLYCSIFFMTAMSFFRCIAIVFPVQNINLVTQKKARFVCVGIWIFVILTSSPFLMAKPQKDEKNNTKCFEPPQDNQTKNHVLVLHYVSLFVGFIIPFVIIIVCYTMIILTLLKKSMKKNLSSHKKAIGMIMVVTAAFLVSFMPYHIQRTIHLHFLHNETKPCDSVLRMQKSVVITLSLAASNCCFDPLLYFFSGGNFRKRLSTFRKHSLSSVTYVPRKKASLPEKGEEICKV

[4] = biological target: Protein phosphatase 3 catalytic subunit alpha (Homo sapiens, UniProt Q08209); set-up: species or system Escherichia coli;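 further: inhibition of calcineurin (PP2B) enzyme activity, measured with DiFMUP as the substrate; in other assays of this panel Not Active means under 50% inhibition at 10 µM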
[5] = DRUGMATRIX: Platelet-Derived Growth Factor (PDGF) radioligand binding (ligand: [125I] PDGF); type: cell-based; conditions: nih3t3; Not Active = under 50% inhibition at 10 µM
[6] = DRUGMATRIX: Atrial Natriuretic Factor (ANF) radioligand binding (ligand: [125I] ANF (rat)); type: cell membranes, Cavia porcellus, Dunkin-Hartley, Adrenal gland, Membrane; conditions: Not Active = under 50% inhibition at 10 µM
Cathepsin G = biological target: T2, Cathepsin G (Homo sapiens, UniProt P08311); type: tissue-based; conditions: neutrophil;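 further: inhibition of Cathepsin G enzyme activity, tested on an AMC-conjugated peptide substrate; in other assays of this panel Not Active means under 50% inhibition at 10 µM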
T2 sequence (P08311 whole entry): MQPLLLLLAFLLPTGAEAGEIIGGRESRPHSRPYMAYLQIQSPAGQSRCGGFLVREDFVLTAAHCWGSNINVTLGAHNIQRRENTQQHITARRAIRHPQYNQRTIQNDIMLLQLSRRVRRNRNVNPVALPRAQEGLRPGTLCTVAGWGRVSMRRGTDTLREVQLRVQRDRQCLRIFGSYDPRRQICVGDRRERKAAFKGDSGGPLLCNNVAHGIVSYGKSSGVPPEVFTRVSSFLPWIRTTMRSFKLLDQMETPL

[7] = biological target: T3, Alpha-2C adrenergic receptor (Homo sapiens, UniProt P18825); assay: DRUGMATRIX: Adrenergic Alpha-2C radioligand binding (ligand: [3H] MK-912); type: cell membranes, Sf9, Membrane
T3 sequence (P18825 whole entry): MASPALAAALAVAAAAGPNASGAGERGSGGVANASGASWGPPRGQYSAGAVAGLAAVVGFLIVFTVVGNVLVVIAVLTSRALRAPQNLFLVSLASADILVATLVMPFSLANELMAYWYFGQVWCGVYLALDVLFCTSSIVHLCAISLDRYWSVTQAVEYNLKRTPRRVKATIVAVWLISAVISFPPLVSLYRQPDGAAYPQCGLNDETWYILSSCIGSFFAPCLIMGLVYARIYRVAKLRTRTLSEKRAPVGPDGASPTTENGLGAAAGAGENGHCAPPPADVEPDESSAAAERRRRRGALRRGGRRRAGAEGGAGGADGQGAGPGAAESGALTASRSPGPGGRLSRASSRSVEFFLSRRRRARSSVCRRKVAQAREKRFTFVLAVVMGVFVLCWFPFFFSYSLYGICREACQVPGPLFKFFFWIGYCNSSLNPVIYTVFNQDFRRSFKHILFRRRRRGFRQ

5-hydroxytryptamine receptor 6, sequence (P50406 whole entry): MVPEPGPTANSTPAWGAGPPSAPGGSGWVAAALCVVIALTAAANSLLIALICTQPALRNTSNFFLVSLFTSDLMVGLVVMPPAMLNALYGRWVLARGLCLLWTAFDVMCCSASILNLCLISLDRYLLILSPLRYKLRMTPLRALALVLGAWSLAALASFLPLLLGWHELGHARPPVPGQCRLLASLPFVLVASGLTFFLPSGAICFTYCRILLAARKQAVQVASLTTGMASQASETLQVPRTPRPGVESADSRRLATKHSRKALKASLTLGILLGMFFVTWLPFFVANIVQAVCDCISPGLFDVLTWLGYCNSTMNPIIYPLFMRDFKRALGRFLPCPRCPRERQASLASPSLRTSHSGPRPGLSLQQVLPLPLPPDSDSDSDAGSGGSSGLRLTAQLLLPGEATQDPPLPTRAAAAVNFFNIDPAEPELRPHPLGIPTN
Kappa-type opioid receptor, sequence (P41145 whole entry): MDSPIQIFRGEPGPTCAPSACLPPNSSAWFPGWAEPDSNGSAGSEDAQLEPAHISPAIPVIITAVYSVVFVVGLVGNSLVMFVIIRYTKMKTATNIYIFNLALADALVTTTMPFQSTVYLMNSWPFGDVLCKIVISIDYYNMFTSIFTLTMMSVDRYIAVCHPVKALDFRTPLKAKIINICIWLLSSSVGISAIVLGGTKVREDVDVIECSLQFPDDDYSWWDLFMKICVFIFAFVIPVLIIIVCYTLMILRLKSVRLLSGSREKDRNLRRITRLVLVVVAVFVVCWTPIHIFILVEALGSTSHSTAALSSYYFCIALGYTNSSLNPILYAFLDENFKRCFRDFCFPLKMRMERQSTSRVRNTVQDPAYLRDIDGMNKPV

Row | Compound | IC50 [1] | IC50 [2] | IC50 [3] | IC50 [4] | IC50 [5] | Ki [5] | IC50 [6] | Ki [6] | IC50 (Cathepsin G) | IC50 ([7]; sf9) | IC50 ([7]; read-out: IC50) | Ki ([7]; read-out: Ki)
1 | O=C1CC2(CCCC2)CC(=O)N1CCCCN1CCN(c2ncccn2)CC1 [BUSPIRONE] | Not Active | Not Active | Not Active | Not Active | Not Active | Not Active | Not Active | Not Active | Not Active | Not Active | – | –
2 | O=NN(CCCl)C(=O)NCCCl [CARMUSTINE] | Not Active | Not Active | Not Active | Not Active | Not Active | Not Active | Not Active | Not Active | Not Active | Not Active | – | –
3 | CC1=C(C(=O)O)N2C(=O)[C@@H](NC(=O)[C@H](N)c3ccccc3)[C@H]2SC1 [CEPHALEXIN ANHYDROUS] | Not Active | Not Active | Not Active | Not Active | Not Active | Not Active | Not Active | Not Active | Not Active | Not Active | – | –
4 | O=C(N[C@H](CO)[C@H](O)c1ccc([N+](=O)[O-])cc1)C(Cl)Cl [CHLORAMPHENICOL] | Not Active | Not Active | Not Active | Not Active | Not Active | Not Active | Not Active | Not Active | Not Active | Not Active | – | –
5 | ClC(Cl)Cl [CHLOROFORM] | Not Active | Not Active | Not Active | Not Active | Not Active | Not Active | Not Active | Not Active | Not Active | Not Active | – | –
6 | C=C1CC[C@H](O)C/C1=C/C=C1\CCC[C@]2(C)[C@@H]([C@H](C)CCCC(C)C)CC[C@@H]12 [CHOLECALCIFEROL] | Not Active | Not Active | Not Active | Not Active | Not Active | Not Active | Not Active | Not Active | Not Active | Not Active | – | –
7 | C[N+](C)(C)CCO.[Cl-] [CHOLINE CHLORIDE] | Not Active | Not Active | Not Active | Not Active | Not Active | Not Active | Not Active | Not Active | Not Active | Not Active | – | –
8 | CCOC(=O)C(C)(C)Oc1ccc(Cl)cc1 [CLOFIBRATE] | Not Active | Not Active | Not Active | Not Active | Not Active | Not Active | Not Active | Not Active | Not Active | Not Active | – | –
9 | CC(=O)OCC(=O)[C@@]1(O)CC[C@H]2[C@@H]3CCC4=CC(=O)CC[C@]4(C)[C@H]3C(=O)C[C@@]21C [CORTISONE ACETATE] | Not Active | Not Active | Not Active | Not Active | Not Active | Not Active | Not Active | Not Active | Not Active | Not Active | – | –
10 | O=c1ccc2ccccc2o1 [COUMARIN] | Not Active | Not Active | Not Active | Not Active | Not Active | Not Active | Not Active | Not Active | Not Active | Not Active | – | –
11 | CN(C)/N=N/c1[nH]cnc1C(N)=O [DACARBAZINE] | Not Active | Not Active | Not Active | Not Active | Not Active | Not Active | Not Active | Not Active | Not Active | Not Active | – | –
12 | COc1ccc2c(c1)[C@]13CCCC[C@@H]1[C@H](C2)N(C)CC3 [DEXTROMETHORPHAN] | Not Active | Not Active | Not Active | Not Active | Not Active | Not Active | Not Active | Not Active | Not Active | Not Active | – | –
13 | CC(=O)Nc1c(I)c(NC(C)=O)c(I)c(C(=O)O)c1I [DIATRIZOIC ACID] | Not Active | Not Active | Not Active | Not Active | Not Active | Not Active | Not Active | Not Active | Not Active | Not Active | – | –
14 | O=C(O)Cc1ccccc1Nc1c(Cl)cccc1Cl [DICLOFENAC] | Not Active | Not Active | Not Active | Not Active | Not Active | Not Active | Not Active | Not Active | Not Active | Not Active | – | –
15 | C[C@H]1O[C@@H](O[C@H]2[C@@H](O)C[C@H](O[C@H]3[C@@H](O)C[C@H](O[C@H]4CC[C@@]5(C)[C@H](CC[C@@H]6[C@@H]5CC[C@]5(C)[C@@H](C7=CC(=O)OC7)CC[C@]65O)C4)O[C@@H]3C)O[C@@H]2C)C[C@H](O)[C@@H]1O [DIGITOXIN] | Not Active | Not Active | Not Active | Not Active | Not Active | Not Active | Not Active | Not Active | Not Active | Not Active | – | –
16 | CCN1CC(CCN2CCOCC2)C(c2ccccc2)(c2ccccc2)C1=O (stereo unspecified) [DOXAPRAM] | Not Active | Not Active | Not Active | Not Active | Not Active | Not Active | Not Active | Not Active | Not Active | Not Active | – | –
17 | Cn1c(=O)c2c(ncn2CC2OCCO2)n(C)c1=O [DOXOFYLLINE] | Not Active | Not Active | Not Active | Not Active | Not Active | Not Active | Not Active | Not Active | Not Active | Not Active | – | –
18 | COc1cccc2c1C(=O)c1c(O)c3c(c(O)c1C2=O)C[C@@](O)(C(=O)CO)C[C@@H]3O[C@H]1C[C@H](N)[C@H](O)[C@H](C)O1 [DOXORUBICIN] | Not Active | Not Active | Not Active | Not Active | Not Active | Not Active | Not Active | Not Active | Not Active | Not Active | – | –
19 | COc1cccc2c1C(=O)c1c(O)c3c(c(O)c1C2=O)C[C@@](O)(C(=O)CO)C[C@@H]3O[C@H]1C[C@H](N)[C@@H](O)[C@H](C)O1 [EPIRUBICIN] | Not Active | Not Active | Not Active | Not Active | Not Active | Not Active | Not Active | Not Active | Not Active | Not Active | – | –
20 | C[C@]12CC[C@@H]3c4ccc(OC(=O)c5ccccc5)cc4CC[C@H]3[C@@H]1CC[C@@H]2O [ESTRADIOL BENZOATE] | Not Active | Not Active | Not Active | Not Active | Not Active | Not Active | Not Active | Not Active | Not Active | – | 24.6 µM | 3.58 µM
21 | C[C@]12CC[C@@H]3c4ccc(O)cc4CC[C@H]3[C@@H]1CC[C@@H]2O [ESTRADIOL] | Not Active | Not Active | Not Active | Not Active | Not Active | Not Active | Not Active | Not Active | Not Active | Not Active | – | –
